Test results published in PMC10609081, “In Vivo Trafficking of the Anticancer Drug Tris(8-Quinolinolato) Gallium (III) (KP46) by Gallium-68/67 PET/SPECT Imaging” (Molecules, 2023).

Columns and labels:
[1] = Ex vivo biodistribution 2 h after intravenous injection, nu/nu mice bearing A375 xenografts; assay type: in vivo; conditions: i.v., tracer level
Method: Figure S8. Ex vivo biodistribution of [ Ga]KP46 (tracer level) in nu/nu mice bearing A375 xenografts at two hours post i.v. injection via tail vein. […] Values are […]
expressed as mean ± SD (n = 3). (See below for methods)
Methodology for ex vivo biodistribution 2 h after intravenous injection of [68Ga]KP46 Mice were intravenously injected with tracer level [68Ga]KP46 and culled two hours post injection for organ harvesting and gamma counting. Consistent with the data shown in the main manuscript for 4 […]
[68Ga]KP46. Activity was also observed in the kidneys (30%ID/g for both kidneys) and urine, indicating excretion through urinary system. Significant activity was also seen in the lungs, heart, and small intestine (14.3 ± 0.6, 12.6 ± 1.7 and 12 ± 2.6 %ID/g, respectively), with minimal activity accumulating in the tumour (3.4 ± 0.4%ID/g) (Figure S8). […]

[2] = Octanol extraction of serum, urine and gut contents after oral radiolabelled KP46 (speciation); assay type: in vivo, mice; conditions: 4 h
Method: Serum and urine from the “tracer level” group (E) were subjected to octanol extraction 24 h postadministration to determine the fraction of ^67Ga that may have survived in the form of [^67Ga]KP46 after absorption from the gut.
Oral [^68/67Ga]KP46: The protocol for oral administration experiments reported here was devised on the basis of pilot experiments described in Supplementary Materials (Figure S12). For short-term (up to 4 h) studies with ^68Ga, awake (nonanaesthetised, to avoid suppressive effects of anaesthesia on digestive tract activity) mice that had been fasted for up to 14 h were given [^68Ga]KP46 (5–13 MBq) (group C, “tracer”, n = 3) or [^68Ga]KP46 and KP46 (5–8.5 MBq) (group D, “bulk”, n = 3) by oral gavage. The dose given orally to group D animals, prepared as described above, was 0.4 μmol in 400 μL, molar activity ca. 25 MBq/μmol. The mice were fasted for three hours before being anaesthetised and PET/CT scanned dynamically for one hour (see below for scanning protocol). After scanning, mice in both groups were culled by neck dislocation while still anaesthetised four hours post-oral administration for organ harvesting and gamma counting. Samples of blood, urine and contents of stomach, small intestine and large intestine (the organs/tissue with measurable activity; tumours were not included as they were insufficiently radioactive) from the mice in group C were used for octanol extraction (shake-flask method) to separate water-soluble (released) and lipid-soluble (intact KP46) ^68Ga. Serum samples were prepared by placing blood samples in a serum separator tube (brand VS367954, Fisher Scientific Ltd., Loughborough, UK) and centrifuging at 3000 rpm for 10 min. Serum (200–300 µL) and urine samples (150–180 µL, taken from the excised bladders) were directly added to Eppendorf tubes containing a pre-equilibrated mixture of octanol (500 µL) and water (500 µL). The tubes were vortexed for two minutes on a Multi Vortex Mixer V-32 (Grant Bio). After separation of layers, a sample of 400 µL from each layer was transferred to fresh Eppendorf tubes and analysed with a gamma counter. Stomach content (72–77 mg), small intestine content (35–88 mg), and large intestine content (86–100 mg) samples from each mouse were analysed similarly by adding them directly to Eppendorf tubes containing a pre-equilibrated mixture of octanol (500 µL) and water (500 µL) before vortexing and centrifuging at 10,000 rpm for 10 min at 4 °C. From each layer, 430 µL was transferred to fresh Eppendorf tubes and analysed with a gamma counter; the solid residues were also counted. Tissues from mice in group D were used after radioactive decay for measurements of nonradioactive ^69Ga content.

[3] = system: A375 (human melanoma) cells; assay: Cellular uptake of radiogallium in cultured A375 cells; assay type: cell-based; conditions: 1 h
Method: One million A375 (human melanoma) cells were suspended in 0.5 mL of Dulbecco’s Modified Eagle’s Medium (500 mL DMEM, low-glucose medium with 50 mL 10% FBS, 5 mL of L-glutamine, and 5 mL of penicillin and streptomycin) in 1.5 mL Eppendorf tubes. An amount of 10 µL of no-carrier-added [^68Ga]KP46 or [^68Ga]gallium acetate was added to the cell suspensions (giving a ^68Ga concentration of ca. 20 pM) and to similar tubes containing medium but no cells (to check and compensate for adhesion of radioactivity to tubes). Samples were incubated for 60 min at 37 °C under 5% CO2 and then centrifuged (Sci Spin Mini) for three minutes at 1500 RPM. The supernatants were transferred to fresh Eppendorf tubes. The pellets were washed twice with 0.5 mL PBS, following the same centrifugation protocol, and washes were added to the supernatant tubes. Supernatants and cell pellets were measured using a gamma counter to determine the average activity in cell pellets as a % of the total activity for each sample. The intracellular-to-extracellular ^68Ga concentration ratio was also estimated by correcting for the different volume of supernatant and cell pellet using an estimated spherical cell diameter of 17.5 μm, which leads to an estimated volume of the cell pellet (10^6 cells) of 2.8 μL.

[4] = after removal of solids, octanol extraction, group C
[5] = not extracted into octanol or water, oral tracer (group C)
[6] = octanol extraction, oral tracer (group C)

SMILES: [68Ga+3].[O-]c1cccc2cccnc12.[O-]c1cccc2cccnc12.[O-]c1cccc2cccnc12 [[^68Ga]KP46]
- activity in kidneys, ex vivo ([1]; both kidneys): 30 %ID/g
- activity in heart, ex vivo ([1]; n = 3): 12.6 ± 1.7 %ID/g
- activity in liver, ex vivo ([1]; n = 3): 31.4 ± 3.8 %ID/g
- activity in lungs, ex vivo ([1]; n = 3): 14.3 ± 0.6 %ID/g
- activity in small intestine, ex vivo ([1]; n = 3): 12 ± 2.6 %ID/g
- activity in tumour, ex vivo ([1]; n = 3): 3.4 ± 0.4 %ID/g
- soluble radioactivity in aqueous phase, large intestine [2, 4]: 95.5% ± 4.2%
- soluble radioactivity in aqueous phase, small intestine [2, 4]: 95% ± 2.5%
- soluble radioactivity in aqueous phase, stomach [2, 4]: 76.8% ± 8.7%
- activity present in solids, large intestine contents [2, 5]: 83.7% ± 8.8%
- activity present in solids, small intestine contents [2, 5]: 80.7% ± 19.4%
- activity present in solids, stomach contents [2, 5]: 82.9% ± 10.7%
- 68Ga in aqueous phase, serum [2, 6]: 98.6% ± 1.5%
- 68Ga in aqueous phase, urine [2, 6]: 98.2% ± 1.7%
- cellular uptake (% radioactivity added, corrected for nonspecific binding to vessel) ([3]; DMEM containing FBS, n = 3): 2.55% ± 1%
- intracellular-to-extracellular concentration ratio ([3]; corrected data, estimated cell pellet volume 2.8 μL): 14 ± 6
